Measurements published in US5136076A, “Process for the preparation of amino acid-derived enatiomeric compounds” (Societe Civile Bioprojet, priority 1987, dated 1992).
Blank lines part the entries; values can stand above or below the compound they belong to.

Assays:
[1] = cited from earlier work
[2] = tested on: angiotensin conversion enzyme (ACE); conditions: cited from earlier work
enkephalinase [3] = target: T1, enkephalinase (Mus musculus, UniProt Q61391); test: Enkephalinase inhibition in vitro on striatum membranes (Table 1 (a)); format: biochemical
T1 construct: Activity measured on striatum membranes according to Llorens et al., J; from tissue; host or cells: striatum membranes
T1 sequence (Q61391 1-750): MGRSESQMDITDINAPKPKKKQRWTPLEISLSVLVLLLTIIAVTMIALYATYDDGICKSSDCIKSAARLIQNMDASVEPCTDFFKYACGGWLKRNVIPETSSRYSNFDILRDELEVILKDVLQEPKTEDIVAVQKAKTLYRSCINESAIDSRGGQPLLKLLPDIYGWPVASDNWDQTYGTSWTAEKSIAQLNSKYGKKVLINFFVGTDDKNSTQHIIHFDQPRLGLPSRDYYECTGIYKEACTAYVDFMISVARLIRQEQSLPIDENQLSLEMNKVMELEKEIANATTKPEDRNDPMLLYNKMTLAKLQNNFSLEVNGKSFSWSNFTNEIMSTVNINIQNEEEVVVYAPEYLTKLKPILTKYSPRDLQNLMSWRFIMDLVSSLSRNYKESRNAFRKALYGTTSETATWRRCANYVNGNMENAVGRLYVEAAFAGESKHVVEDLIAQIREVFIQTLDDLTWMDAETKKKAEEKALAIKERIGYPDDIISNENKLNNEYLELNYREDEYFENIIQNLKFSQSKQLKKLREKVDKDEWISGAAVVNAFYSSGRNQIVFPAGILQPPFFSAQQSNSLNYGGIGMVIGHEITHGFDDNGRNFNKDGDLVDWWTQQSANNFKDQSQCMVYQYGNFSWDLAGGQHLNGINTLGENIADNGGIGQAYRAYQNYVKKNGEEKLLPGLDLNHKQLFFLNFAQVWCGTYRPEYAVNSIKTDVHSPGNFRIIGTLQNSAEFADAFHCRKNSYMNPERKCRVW
Description: (§1) Dosage of `enkephalinase` activity and angiotensin convertase (ACE) activity with determination of the effect of inhibitors both in vitro and on mouses in vivo: inhibition of the same enzymes and protection of natriuretic auricular factor.
(§2) ENKEPHALINASE AND ACE INHIBITING ACTIVITIES IN IN VITRO AND IN VIVO STRIATUM
(a)Activity measured on striatum membranes according to Llorens et al., J

enkephalinase [4] = test: Enkephalinase inhibition in vivo in mouse striatum (Table 1 (b)); conditions: 30 mn after i.v. administration
Description: as §1, §2
(b)Activity measured in mouse striatum 30 mn after i.v. administration
according to LlorensCortes et al., Eur. J. Pharmacol., 1985, 119, 183.

[5] = target: T2, ACE (angiotensin convertase) (Mus musculus, UniProt P09470); test: ACE inhibition in vitro on mouse striatum membranes (Table 1 (c)); format: biochemical
T2 construct: Activities measured on mouse striatum membranes in vitro or 30; from tissue; host or cells: mouse striatum (membranes)
T2 sequence (P09470 35-1312): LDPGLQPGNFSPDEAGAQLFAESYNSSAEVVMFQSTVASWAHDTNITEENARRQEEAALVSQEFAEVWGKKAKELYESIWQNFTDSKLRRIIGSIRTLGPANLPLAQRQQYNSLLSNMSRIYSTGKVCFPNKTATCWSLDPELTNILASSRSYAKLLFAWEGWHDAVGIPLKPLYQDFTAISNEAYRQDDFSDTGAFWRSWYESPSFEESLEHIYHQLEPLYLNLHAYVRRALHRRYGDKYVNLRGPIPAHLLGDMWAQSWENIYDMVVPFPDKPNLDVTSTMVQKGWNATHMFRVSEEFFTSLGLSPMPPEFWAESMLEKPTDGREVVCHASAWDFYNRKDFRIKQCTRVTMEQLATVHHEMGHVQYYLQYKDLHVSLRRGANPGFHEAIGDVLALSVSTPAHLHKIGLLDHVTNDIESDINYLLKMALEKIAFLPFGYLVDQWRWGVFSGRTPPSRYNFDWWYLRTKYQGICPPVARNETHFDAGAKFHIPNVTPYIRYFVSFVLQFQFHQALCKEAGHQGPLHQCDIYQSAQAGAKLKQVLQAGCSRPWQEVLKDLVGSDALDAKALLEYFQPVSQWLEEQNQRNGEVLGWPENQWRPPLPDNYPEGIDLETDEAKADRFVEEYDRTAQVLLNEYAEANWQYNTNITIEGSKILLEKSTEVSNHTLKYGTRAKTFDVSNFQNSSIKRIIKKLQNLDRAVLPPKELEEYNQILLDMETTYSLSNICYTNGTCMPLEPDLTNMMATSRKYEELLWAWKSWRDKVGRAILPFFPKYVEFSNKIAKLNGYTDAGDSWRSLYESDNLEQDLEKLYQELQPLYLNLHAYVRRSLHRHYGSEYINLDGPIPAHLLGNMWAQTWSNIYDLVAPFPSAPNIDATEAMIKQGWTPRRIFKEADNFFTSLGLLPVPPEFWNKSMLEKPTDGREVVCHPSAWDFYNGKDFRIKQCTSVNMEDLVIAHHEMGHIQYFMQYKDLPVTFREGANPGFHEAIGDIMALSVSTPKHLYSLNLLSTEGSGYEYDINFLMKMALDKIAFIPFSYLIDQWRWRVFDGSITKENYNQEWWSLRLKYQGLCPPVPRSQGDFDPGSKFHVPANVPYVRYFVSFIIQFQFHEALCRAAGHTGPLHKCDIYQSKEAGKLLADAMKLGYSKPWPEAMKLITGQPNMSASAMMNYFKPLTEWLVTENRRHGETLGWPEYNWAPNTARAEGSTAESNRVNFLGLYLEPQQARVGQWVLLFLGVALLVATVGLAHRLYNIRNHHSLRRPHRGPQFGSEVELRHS
Description: as §1, §2
(§3) (c) and (d)Activities measured on mouse striatum membranes in vitro or 30
(§4) mn after i.v. administration according to Yang and Neff, J. Neurochem, […]

[6] = target: T2, ACE (angiotensin convertase); test: ACE inhibition in vivo, mouse striatum (Table 1 (d)); conditions: for ED50: iv, 0.5 h, read-out: ACE In vivo(d) (DE50, mg/kg)
Description: as §1, §2, §3, §4

renal enkephalinase = test: Inhibition of linking between Acetorphan and renal enkephalinase after oral administration (Table 2 (a)); format: in vivo, mouse; conditions: kidney, 0.3 mg/kg oral, 90 minutes after administration
Description: as §1
(§5) ENKEPHALINASE INHIBITING ACTIVITIES AND PROTECTION OF NATRIURETIC AURICULAR FACTOR (ANF) IN THE KIDNEY IN VIVO
(a) Inhibition of the linking between […] Acetorphan and renal
enkephalinase measured according to S. de la Baume, M. Tuong, F. Brion, J
C. Schwartz (J.P.E.T. 1988, forthcoming) 90 minutes after oral
administration of compounds 1 or 2 at a dose of 0.3 mg/kg.

[7] = tested on: natriuretic auricular factor (ANF) in the kidney; test: Protection of natriuretic auricular factor (ANF) in the kidney in vivo (Table 2 (b)); parameters: species or system mouse; conditions: for Increase of ANF (%): renal 125I ANF 2 min after i.v. administration of 10^6 cpm, compound 0.3 mg/kg orally 90 min before, 0.3 mg/kg
Description: as §1, §5
(b) Increase in the renal level of ^125 I ANF, as measured 2 min afte
i.v. administration of 10^6 cpm to mouses having been given compounds
1 or 2, 90 min before (0.3 mg/kg, orally).
Compound 2 (0.3 mg/kg, p.o.) induces in the same test an increase of renal ^125 I ANF of 75±7% after 30 min and […] after 180 min.

mouses [8] = test: Subacute toxicity, 3 weeks oral; format: in vivo; conditions: 2 g/kg/day oral, mouse, as opposed to control
Description: Compound (1) was administered during 3 weeks to mouses at an oral dose of 2 g/kg/day.
Moreover, no signs of tolerance, habituation or other weaning phenomenon were observed on animals submitted to a reversibility test after treatment.

mouses [9] = test: Analgesic activity, plate jump test at 55° C.; format: in vivo, mouse
Description: III. ANALGESIC ACTIVITIES MEASURED ON PLATE JUMP TEST AT 55° C. AFTER ADMINISTRATION TO MOUSES.
(Eddy and Leimbach, J. Pharmacol. Exp. Ther. 1953, 107 385).

dogs = test: Colic motive activity (motive index) after standard meal; format: in vivo, dog
Description: Motive index (as evaluated with a restraint gauge).
Influence of previous intravenous (i.v.) or oral (p.o.) administration of
compound or the variations of the colic motive index after standard meal

cats [10] = test: Inhibition of stimulated gastric acid secretion; format: in vivo, cat; conditions: 0.5, 1.5 and 5 mg/kg i.v.; p<0.05
cats [11] = test: Anti-inflammatory activity in experimental cholecystitis; format: in vivo, cat; conditions: 3 mg/kg i.v.
plasma enkephalinase = test: Clinical pharmacology: plasma enkephalinase; format: in vivo, human; conditions: 30 mg oral, 1 hr after administration, vs placebo, p<0.001
Description: (§6) With healthy volunteers (9 male subjects) enkephalinase and natriuretic auricular factor (ANF) plasma levels as well as diuresis and natruresis are measured after oral administration of either a placebo, or (S) acetorphan.

plasma ANF = test: Clinical pharmacology: plasma natriuretic auricular factor (ANF); format: in vivo, human; conditions: 30 mg oral, 1 hr after administration, vs placebo, p<0.05
Description: as §6

healthy volunteers = test: Clinical pharmacology: diuresis and natriuresis; format: in vivo, human; conditions: 30 mg oral, between 2 and 8 hours after administration, p<0.05
Description: as §6

[12] = mouse, mouse striatum, 30 mn after i.v. administration

Structure (SMILES): CC(=O)SCC(Cc1ccccc1)C(=O)NCC(=O)OCc1ccccc1 (racemic) [Acetorphan, (R,S) N-/2-acetylthiomethyl-1-oxo-3-phenyl propyl/-glycine benzyl ester]
dose active intraveinously ([1]; i.v.): around 1 mg/kg

Structure (SMILES): O=C(O)CNC(=O)C(CS)Cc1ccccc1 (racemic) [thiorphan]
inhibition of angiotensin conversion enzyme [2]: less powerful inhibitor of angiotensin conversion enzyme
cardiovascular activity ([1]; at a higher dose): at a higher dose, a cardiovascular activity
active dose systemically, times higher than Acetorphan ([1]; systemically, relative to Acetorphan i.v. (around 1 mg/kg)): about 50 times
analgesic properties ([1]; used intraveinously or intracerebroventricularly): analgesic properties

Structure (SMILES): CC(=O)SCC(Cc1ccccc1)C(=O)NCC(=O)OCc1ccccc1 (single isomer, unassigned) [Compound (1)]
IC50 (enkephalinase [3]): 2 nM
Enkephalinase In vivo(b) (DE50, mg/kg) (enkephalinase [4]; 30 min): 0.8 mg/kg
IC50 [5]: 5000 nM
ACE-inhibiting effect ([6]; mouse, in vivo): lack of ACE-inhibiting effect
ED50 [6, 12]: > 20 mg/kg
Inhibition of enkephalinase (%) (renal enkephalinase): 15 ± 6%
Increase of ANF (%) [7]: inactive
Organ weight and pathological examination (mouses [8]): no difference as opposed to control
Reaction time (mouses [9]; 5 mg/kg i.v., 20' before test): 85 ± 5 s
Reaction time (mouses [9]; 30 mg/kg oral, 1 h before test): 80 ± 6 s
Reaction time (mouses [9]; 100 mg/kg oral, 1 h before test): 140 ± 10 s
Motive index, After meal (0/+2 h) (dogs; 1 mg/kg i.v.): 15.2 ± 2.4
Motive index, After meal (+2/10 h) (dogs; 1 mg/kg i.v.): 18.3 ± 3.1
Motive index, Before meal (-2/0) (dogs; 1 mg/kg i.v.): 5.9 ± 0.7
Motive index, After meal (0/+2 h) (dogs; 10 mg/kg p.o.): 17.4 ± 2.7
Motive index, After meal (+2/10 h) (dogs; 10 mg/kg p.o.): 21.5 ± 4.6
Motive index, Before meal (-2/0) (dogs; 10 mg/kg p.o.): 6.4 ± 0.8
colic motricity as an answer to the intake of food (dogs; dogs, postprandial periods): potentiates an increase in colic motricity
stimulation of gastric acid secretion induced by Pentagastrin, 2-deoxyglucose and histamin (cats [10]): significatively decreased
hypersecretion induced by an inflammation of the gall bladder (cats [11]): significatively decreases hypersecretion

Structure (SMILES): CC(=O)SCC(Cc1ccccc1)C(=O)NCC(=O)OCc1ccccc1 (single isomer, unassigned) [Compound (2)]
IC50 (enkephalinase [3]): 3 nM
Enkephalinase In vivo(b) (DE50, mg/kg) (enkephalinase [4]; 30 min): 0.4 mg/kg
IC50 [5]: 100 nM
ACE In vivo(d) (DE50, mg/kg) ([6]; mouse striatum, 30 mn after i.v. administration, 30 min): 10 mg/kg
Inhibition of enkephalinase (%) (renal enkephalinase): 54 ± 6%
increase of renal 125I ANF ([7]; 0.3 mg/kg p.o., after 30 min): 75±7%
Increase of ANF (%) [7]: 33 ± 3%
Reaction time (mouses [9]; 30 mg/kg oral, 1 h before test): 75 ± 5 s
Motive index, After meal (0/+2 h) (dogs; 5 mg/kg p.o.): 16.3 ± 2.5
Motive index, After meal (+2/10 h) (dogs; 5 mg/kg p.o.): 20.1 ± 3.7
Motive index, Before meal (-2/0) (dogs; 5 mg/kg p.o.): 6.2 ± 0.9
stimulation of gastric acid secretion induced by Pentagastrin, 2-deoxyglucose and histamin (cats [10]): significatively decreased
inhibition of plasma enkephalinase (plasma enkephalinase): 62%
increase of plasma ANF (plasma ANF): 50%
increase of diuresis (healthy volunteers): 42%
increase of natriuresis (healthy volunteers): 46%

IC50 (enkephalinase [3]): 3 nM
IC50 [5]: 2000 nM
ED50 [6, 12]: > 20 mg/kg
Structure (SMILES): COC(=O)[C@H](C)NC(=O)[C@H](CSC(C)=O)Cc1ccccc1 [(5), (R) N-/2-acetylthiomethyl-1-oxo-3-phenyl propyl/-(S)-alanine methyl ester]
Enkephalinase In vivo(b) (DE50, mg/kg) (enkephalinase [4]): 0.9 mg/kg

IC50 (enkephalinase [3]): 1.2 nM
IC50 [5]: 12 nM
ED50 [6, 12]: 4 mg/kg
Structure (SMILES): COC(=O)[C@H](C)NC(=O)[C@@H](CSC(C)=O)Cc1ccccc1 [(6), (S) N-/2-acetylthiomethyl-1-oxo-3-phenylpropyl/-(S)-alanine methyl ester]
Enkephalinase In vivo(b) (DE50, mg/kg) (enkephalinase [4]): 0.3 mg/kg

Structure (SMILES): O=C(O)CNC(=O)[C@H](CS)Cc1ccccc1 [(R) isomer]
analgesic activity ([1]; intracerebral, separate enantiomers of thiorphan): principally to the (R) isomer

Structure (SMILES): O=C(O)CNC(=O)[C@@H](CS)Cc1ccccc1 [(S) isomer]
ACE's inhibiting activity ([2]; separate enantiomers of thiorphan): almost exclusively attributable to the (S) isomer
